Test results reported in patent publication US8563009B2, “Use of monomycolyl glycerol (MMG) as an adjuvant” (priority 2007, dated 2013).

How the values were obtained:
[1] = system: human peripheral blood monocyte-derived immature DC (iDC); assay: Activation of human immature dendritic cells, surface markers by flow cytometry; type: cell-based; details: 24 h, 10 μg/ml lipid; for mean fold increase in CD86 levels above levels associated with untreated iDC: six individual donors
[2] = system: IFN-γ release by PBMC upon restimulation with antigen; assay: IFN-γ release by lymphocytes of mice immunised with Ag85B-ESAT-6 in adjuvant; type: in vivo, C57BL/6 mice; details: for immune response (IFN-γ release by PBMC) in the blood one week after the last vaccination: Ag85B-ESAT-6 in DDA, 10 μg MMG or analogue
[3] = system: human peripheral blood monocyte-derived immature DC (iDC); type: cell-based; details: 24 h, 10 μg/ml lipid, ELISA, Tukey test
[4] = 10 μg lipid in 250 μg DDA liposomes with 2 μg Ag85B-ESAT-6, s.c.

Row | Molecule | DC activation, upregulation of CD86, CD40 and HLA-DR (rank among purified apolar lipids) [1] | mean fold increase in CD86 levels above levels associated with untreated iDC [1] [fold] | IFN-γ production, draining lymph node (in words) [2, 4] | IL-6 release by DC [3] | IFN-γ levels upon restimulation of PBMC isolated from the draining lymph node [2, 4] [ng/mL] | immune response (IFN-γ release by PBMC) in the blood one week after the last vaccination [2]
1 | phthiocerol dimycocerosate A [PDIM A] | second most active lipid | 1.82±0.43 | albeit to a lower level |  |  | 
2 | triacyl glycerols [TAGs] | induced less activation | 1.32±0.14 | very little IFN-γ release |  |  | 
3 | monomycolyl glycerol [MMG] | most potent inducer of DC activation | 1.91±0.29 |  | significantly greater levels | 10 | comparable levels of responses
4 | CCCCCCCCCCCCCCCCCC[N+](C)(C)CCCCCCCCCCCCCCCCCC.[Br-] [DDA, dimethyldioctadecylammonium] |  |  |  |  |  | lower effect
5 | CCCCCCCC(O)C(CCCCCC)C(=O)OCC(O)CO (centres unmarked) [synthetic MMG analogue with 16 carbons, 3-hydroxy-2-hexyl-decanoic acid-2,3-dihydroxypropyl ester] |  |  |  |  |  | comparable levels of responses
6 | phenolic glycolipid [PGL] | induced less activation | 1.52±0.26 | very little IFN-γ release |  |  | 
7 | CCCCCCCCCCCCCCCCCC(O)C(CCCCCCCCCCCCCCCC)C(=O)OCC(O)CO (centres unmarked) [synthetic MMG analogue with 36 carbons, 3-hydroxy-2-hexadecylicosanoic acid-2,3-dihydroxypropyl ester] |  |  |  |  |  | comparable levels of responses
